Assay results published in US4855304A, “Dinucleoside pyrophosphates and pyrophosphate homologs as plant antivirals” (Repligen Corporation, priority 1985, dated 1989).

What was measured:
[1] = system: TMV (tobacco mosaic virus) replication in TMV-infected tobacco leaf discs; test: Antiviral activity in TMV-infected leaf discs (TMV content by ELISA); type: cell-based, tobacco mosaic virus; leaf discs of N. tabacum var. samsun; settings: for ng TMV/ml: control 550 (Table 4)
Description: Assays for antiviral activity in TMV-infected leaf discs were done using leaves of N. tabacum var. samsun in which TMV is systemically spread. Leaves were mechanically inoculated with purified TMV (5 μg/ml in 0.01M sodium phosphate buffer, pH 7.6, containing 0.1 g/ml of carborundum as an abrasive). Immediately after infection, leaf discs (6.5 mm diameter) were punched out of the inoculated leaves and placed in a beaker containing 0.01M sodium phosphate, pH 7.6.
selected at random from this common pool and placed onto separate petri dishes, each containing 18 ml of 10 mM 4-(2-hydroxyethyl)-1-piperazine ethanesulfonic acid (HEPES)-KOH, pH 7.05, 188 mg/L Na2 HPO4 --7H2 O. […] At the end of the 1 hr incubation, the buffer containing the antiviral dinucleotide was replaced by a buffer lacking the antiviral dinucleotide for another hr. The discs were then washed with 0.01M sodium phosphate, pH 7.6, and were allowed to incubate for an additional 72 hr in phosphate buffer (Devash, Y., Biggs, S. and Sela, I. [1982] Science 216: 1415-1416; Devash, Y. et al. [1984] J. Biol. Chem. 259: 3482-3486). The discs were homogenized in 0.01M sodiuM phosphate buffer, pH 7.6, and the TMV content was determined by enzyme-linked immunosorbent assay (ELISA) as described below.
The TMV content of the homogenates was determined by ELISA essentially by the method of Clark and Adams ([1977] J. Gen. Virol. 34: 475-483) but with the following order of layers on the microtiter plates.
(a) the γ-globulin fraction of a serum obtained from a chicken immunized against TMV was absorbed directly to the plate.
(b) The next layer was the tested sample (at various dilutions) or a series of purified TMV suspensions at known concentrations (calibration curve).
(c) The third layer was the γ-globulin from the serum of a TMV-immunized rabbit.
(d) The final layer was goat antibody to rabbit immunoglobulin G conjugated with alkaline phosphatase (Sigma). The release of phosphate from p-nitrophenyl phosphate due to the antibody-conjugated alkaline phosphatase was monitored spectrophotometrically with a Microplate reader (Dynatech Diagnostics, Inc. South Windham, ME) and was proportional to TMV concentration in a log linear manner for about two logs (<2 ng to>200 ng). (Devash, Y., Biggs, S. and Sela, I. [1982] Science 216: 1415-1416)
The γ-globulin fraction of serum obtained from chickens and rabbits immunized against TMV were generous gifts from Professor Ilan Sela, The Hebrew University of Jerusalem, Agriculture Faculty, Rehobot, Israel.

[2] = system: TMV (tobacco mosaic virus) replication in intact N. glutinosa plants; test: Antiviral activity in N. glutinosa intact plants, infectivity test (local lesions); type: in vivo, tobacco mosaic virus; Nicotiana glutinosa; settings: for induced resistance to TMV infection in the non-treated half-leaf: 1 μM (10^-6 M)
Description: Nicotiana glutinosa and N. tabacum var. samsum plants were grown in potting medium in greenhouse conditions (25±3° C., and constant illumination). The plants were fertilized with a commercial fertilizer every two weeks. Plants were used at 5-8 leaf stage (Devash, Y., Biggs, S. and Sela, I. [1982] Science 216: 1415-1416; Devash, Y. et al. [1984] Jour. Biol. Chem. 259: 3482-3486).
The ability of the antiviral dinucleotides to inhibit TMV replication in intact N. glutinosa plants (containing N-gene for TMV localization) was determined by infectivity tests. Solutions containing 5 μg/ml TMV, 0.1 μg/ml carborundum, and antiviral dinucleotide were applied to 5 half-leaves of N. glutinosa. The opposite half-leaves served as controls and were inoculated with infecting solution containing TMV and carborundum but no dinucleotides. The infection was allowed to proceed 48 hr. Inhibition of TMV replication was calculated as the percent of local lesions produced in antiviral compound treated half-leaves, as compared to control half-leaves.

[3] = 10 nM (10^-8 M), non-treated half-leaf
[4] = 10 nM (10^-8 M), treated half-leaf
[5] = 100 nM (10^-7 M), non-treated half-leaf
[6] = 100 nM (10^-7 M), treated half-leaf
[7] = 1000 nM (10^-6 M), non-treated half-leaf
[8] = 1000 nM (10^-6 M), treated half-leaf

Nc1ncnc2c1ncn2[C@@H]1O[C@H](COP(=O)(O)OP(=O)(O)OC[C@H]2O[C@@H](n3cnc4c(N)ncnc43)[C@@H]3OP(=O)(O)O[C@@H]32)[C@H]2OP(=O)(O)O[C@H]21 [P<A5'PP5'A>P, 2',3'-cyclic phospho-diadenosine 5',5'"-p^1,p^2-diphosphate]
antiviral activity/potency on structural modification ([1]; in words, compared to dinucleotides with 2 and 3 internal phosphates): did not decrease their antiviral potency

Nc1ncnc2c1ncn2[C@@H]1O[C@H](COP(=O)(O)OP(=O)(O)O[C@H]2[C@@H](O)[C@H](n3cnc4c(N)ncnc43)O[C@@H]2CO)[C@@H](O)[C@H]1O [A3'pp5'A, adenosine 3',5'-diphospho-adenosine]
ng TMV/ml ([1]; 2 × 10^-9 M): 550 ng TMV/ml
ng TMV/ml ([1]; 20 × 10^-9 M): 200 ng TMV/ml
ng TMV/ml ([1]; 200 × 10^-9 M): 150 ng TMV/ml
effectiveness in inhibiting TMV replication compared with 2',5'-adenylate trimer core ([1]; TMV-infected discs, in words): confer similar antiviral state
inhibition at 0.002 µM ([1]; Tobacco mosaic virus, 2 × 10^-9 M (Table 4), read-out: % Inhibition as Related to Control): 0%
inhibition at 0.02 µM ([1]; Tobacco mosaic virus, 20 × 10^-9 M (Table 4), read-out: % Inhibition as Related to Control): 64%
inhibition at 0.2 µM ([1]; Tobacco mosaic virus, 200 × 10^-9 M (Table 4), read-out: % Inhibition as Related to Control): 73%
induced resistance to TMV infection in the non-treated half-leaf ([2]; in words): resulted in an induced resistance to TMV infection even in the non-treated half-leaf
percent protection as compared to control TMV infected leaves ([2]; 10^-6 M, non-treated half leaf (Table 5)): 93%
percent protection as compared to control TMV infected leaves ([2]; 10^-6 M, treated half leaf (Table 5)): 100%
inhibition of TMV replication (inhibition of formation of local lesions) ([2]; N. glutinosa intact plants, in words): inhibited the TMV replication

Nc1ccn([C@@H]2O[C@H](COP(=O)(O)OP(=O)(O)OC[C@H]3O[C@@H](n4cnc5c(N)ncnc54)[C@H](O)[C@@H]3O)[C@@H](O)[C@H]2O)c(=O)n1 [A5'pp5'C, adenosine 5',5'"-p^1,p^2 -diphospho-cytidine]
percent protection as compared to control TMV infected leaves [2, 3]: 36.1%
percent protection as compared to control TMV infected leaves [2, 4]: 55.0%
percent protection as compared to control TMV infected leaves [2, 5]: 35.5%
percent protection as compared to control TMV infected leaves [2, 6]: 51.9%
induced resistance to TMV infection in the non-treated half-leaf ([2]; in words): resulted in an induced resistance to TMV infection even in the non-treated half-leaf
percent protection as compared to control TMV infected leaves [2, 7]: 32.9%
percent protection as compared to control TMV infected leaves [2, 8]: 63.5%

Nc1ncnc2c1ncn2[C@@H]1O[C@H](COP(=O)(O)OP(=O)(O)OC[C@H]2O[C@@H](n3ccc(=O)[nH]c3=O)[C@H](O)[C@@H]2O)[C@@H](O)[C@H]1O [A5'pp5'U, adenosine 5',5'"-p^1,p^2 -diphospho-uridine]
percent protection as compared to control TMV infected leaves [2, 3]: 5.2%
percent protection as compared to control TMV infected leaves [2, 4]: 38.1%
percent protection as compared to control TMV infected leaves [2, 5]: 0%
percent protection as compared to control TMV infected leaves [2, 6]: 0%
percent protection as compared to control TMV infected leaves [2, 7]: 21.0%
percent protection as compared to control TMV infected leaves [2, 8]: 80.2%

Nc1ncnc2c1ncn2[C@@H]1O[C@H](COP(=O)(O)OP(=O)(O)O[C@@H]2[C@H](O)[C@@H](CO)O[C@H]2n2cnc3c(N)ncnc32)[C@@H](O)[C@H]1O [Adenosine 2',5'-p^1,p^2-diadenosine, adenosine 2',5'-diphospho-adenosine]
inhibition of TMV replication ([1]; TMV-infected discs, in words): effective inhibitor of TMV replication
inhibition at 1 µM ([1]; Tobacco mosaic virus, 10^-6 M (Table 6), read-out: % Inhibition as related to control): 42%
inhibition at 0.1 µM ([1]; Tobacco mosaic virus, 10^-7 M (Table 6), read-out: % Inhibition as related to control): 37%
inhibition at 0.01 µM ([1]; Tobacco mosaic virus, 10^-8 M (Table 6), read-out: % Inhibition as related to control): 26.4%
inhibition at 0.001 µM ([1]; Tobacco mosaic virus, 10^-9 M (Table 6), read-out: % Inhibition as related to control): 21%
inhibition at 0.0001 µM ([1]; Tobacco mosaic virus, 10^-10 M (Table 6), read-out: % Inhibition as related to control): 0%
